What is called IC50 is the point on the concentration scale where inhibition reaches its midpoint. Read a low IC50 as greater potency.

Our source for the IC50 values is patent US20150252047A1, “SUBSTITUTED INDAZOL-PYRROLOPYRIMIDINES USEFUL IN THE TREATMENT OF HYPERPROLIFERATIVE DISEASES” (BAYER PHARMA AKTIENGESELLSCHAFT, priority 2012, published 2015).

T1 sequence (Q9BUB5 1-424 isoform Q9BUB5-2 T344D): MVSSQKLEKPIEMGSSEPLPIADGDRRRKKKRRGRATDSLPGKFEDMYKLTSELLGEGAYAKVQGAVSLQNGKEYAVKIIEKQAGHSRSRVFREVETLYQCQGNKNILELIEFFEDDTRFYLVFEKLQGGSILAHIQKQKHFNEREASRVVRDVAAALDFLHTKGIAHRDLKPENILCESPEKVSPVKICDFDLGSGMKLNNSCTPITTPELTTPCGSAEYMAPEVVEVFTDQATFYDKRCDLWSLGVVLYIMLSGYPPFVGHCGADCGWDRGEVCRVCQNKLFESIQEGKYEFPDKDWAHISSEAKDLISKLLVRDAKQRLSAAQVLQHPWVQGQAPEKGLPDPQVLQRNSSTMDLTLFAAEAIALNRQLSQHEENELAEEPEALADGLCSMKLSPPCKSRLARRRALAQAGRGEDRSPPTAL

The test has as its target T1, human full-length MKNK1 (Homo sapiens, UniProt Q9BUB5, T385D).
T1 construct: GST (N); purchased Carna Biosciences 02-145; host or cells: insect cells (baculovirus expression system)
The experiment in a line: MKNK1 kinase high ATP assay (TR-FRET). Particulars: high ATP (2 mM final), 15 min preincubation with enzyme, 30 min reaction at 22° C. The test is classed as biochemical. As to the method:
MKNK1-inhibitory activity at high ATP of compounds of the present invention after their preincubation with MKNK1 was quantified employing the TR-FRET-based MKNK1 high ATP assay as described in the following paragraphs.
A recombinant fusion protein of Glutathione-S-Transferase (GST, N-terminally) and human full-length MKNK1 (amino acids 1-424 and T344D of accession number BAA 19885.1), expressed in insect cells using baculovirus expression system and purified via glutathione sepharose affinity chromatography, was purchased from Carna Biosciences (product no 02-145) and used as enzyme. As substrate for the kinase reaction the biotinylated peptide biotin-Ahx-IKKRKLTRRKSLKG (C-terminus in amide form) was used, which can be purchased e.g. from the company Biosyntan (Berlin-Buch, Germany).
For the assay 50 nL of a 100 fold concentrated solution of the test compound in DMSO was pipetted into a black low volume 384 well microtiter plate (Greiner Bio-One, Frickenhausen, Germany), 2 μL of a solution of MKNK1 in aqueous assay buffer [50 mM HEPES pH 7.5, 5 mM MgCl2, 1.0 mM dithiothreitol, 0.005% (v/v) Nonidet-P40 (Sigma)] was added and the mixture was incubated for 15 min at 22° C. to allow pre-binding of the test compounds to the enzyme before the start of the kinase reaction. Then the kinase reaction was started by the addition of 3 μL of a solution of adenosine-tri-phosphate (ATP, 3.3 mM=>final conc. in the 5 μL assay volume is 2 mM) and substrate (0.1 μM=>final conc. in the 5 μL assay volume is 0.06 μM) in assay buffer and the resulting mixture was incubated for a reaction time of 30 min at 22° C. The concentration of MKNK1 was adjusted depending of the activity of the enzyme lot and was chosen appropriate to have the assay in the linear range, typical concentrations were in the range of 0.003 μg/mL. The reaction was stopped by the addition of 5 μL of a solution of TR-FRET detection reagents (5 nM streptavidine-XL665 [Cisbio Bioassays, Codolet, France] and 1 nM anti-ribosomal protein S6 (pSer236)-antibody from Invitrogen [#44921G] and 1 nM LANCE EU-W1024 Labeled ProteinG [Perkin-Elmer, product no. AD0071]) in an aqueous EDTA-solution (100 mM EDTA, 0.1% (w/v) bovine serum albumin in 50 mM HEPES pH 7.5).
The resulting mixture was incubated for 1 h at 22° C. to allow the formation of complex between the phosphorylated biotinylated peptide and the detection reagents. Subsequently the amount of phosphorylated substrate was evaluated by measurement of the resonance energy transfer from the Eu-chelate to the streptavidine-XL. Therefore, the fluorescence emissions at 620 nm and 665 nm after excitation at 350 nm were measured in a TR-FRET reader, e.g. a Rubystar (BMG Labtechnologies, Offenburg, Germany) or a Viewlux (Perkin-Elmer). The ratio of the emissions at 665 nm and at […] was taken as the measure for the amount of phosphorylated substrate. The data were normalised (enzyme reaction without inhibitor=0% inhibition, all other assay components but no enzyme=100% inhibition).
(Time-resolved FRET reads energy transfer from a long-lived donor to a nearby acceptor.)
Compound `CC(C)Oc1cc2[nH]ncc2cc1Nc1ncnc2[nH]cc(C#N)c12` [Example 34, 4-[(6-Isopropoxy-1H-indazol-5-yl)amino]-7H-pyrrolo[2,3-d]pyrimidine-5-carbonitrile] gave a concentration for half-maximal inhibition (IC50) of 2 nM.

`COc1cc2[nH]ncc2cc1Nc1ncnc2[nH]c(C(=O)N(C)CCN(C)Cc3ccccc3)c(Br)c12` [Example 62, N-{2-[Benzyl(methyl)amino]ethyl}-5-bromo-4-[(6-methoxy-1H-indazol-5-yl)amino]-N-methyl-7H-pyrrolo[2,3-d]pyrimidine-6-carboxamide] yielded an IC50 of 4 nM.

With `Cc1cc2[nH]ncc2cc1Nc1ncnc2[nH]cc(C(=O)O)c12` [Example 8, 4-[(6-Methyl-1H-indazol-5-yl)amino]-7H-pyrrolo[2,3-d]pyrimidine-5-carboxylic acid], half-maximal inhibition (IC50) was put at 72 nM.

Take `Cc1cc2[nH]ncc2cc1Nc1ncnc2[nH]cc(C(=O)N3CCN(C)CC3)c12` [Example 13, {4-[(6-Methyl-1H-indazol-5-yl)amino]-7H-pyrrolo[2,3-d]pyrimidin-5-yl}(4-methylpiperazin-1-yl)methanone]: it took 194 nM to reach half-maximal inhibition (IC50).

Consider `COc1cc2[nH]ncc2cc1Nc1ncnc2[nH]cc(C)c12` [Example 39, N-(6-Methoxy-1H-indazol-5-yl)-5-methyl-7H-pyrrolo[2,3-d]pyrimidin-4-amine], for which the IC50 was 1 nM.

In turn, `CN1CCN(C(=O)c2c[nH]c3ncnc(Nc4cc5cn[nH]c5cc4F)c23)CC1` [Example 17, {4-[(6-Fluoro-1H-indazol-5-yl)amino]-7H-pyrrolo[2,3-d]pyrimidin-5-yl}(4-methylpiperazin-1-yl)methanone] returned an IC50 of 30 nM. Against the preceding compound, the IC50 is about 30-fold higher.

`Fc1cc2[nH]ncc2cc1Nc1ncnc2[nH]cc(Br)c12` [Example 15, 5-Bromo-N-(6-fluoro-1H-indazol-5-yl)-7H-pyrrolo[2,3-d]pyrimidin-4-amine] registered an IC50 of 12 nM. Against the preceding compound, the IC50 is about 2.5-fold lower.

`CCOc1cc2[nH]ncc2cc1Nc1ncnc2[nH]c(CC)c(C)c12` [Example 44, N-(6-Ethoxy-1H-indazol-5-yl)-6-ethyl-5-methyl-7H-pyrrolo[2,3-d]pyrimidin-4-amine] had an IC50 of 3 nM.

Compound `CCc1c[nH]c2ncnc(Nc3cc4cn[nH]c4cc3OC)c12` [Example 57, 5-Ethyl-N-(6-methoxy-1H-indazol-5-yl)-7H-pyrrolo[2,3-d]pyrimidin-4-amine] gave an IC50 of 1 nM. Compared with the last compound, the IC50 is about 3-fold lower.

The compound `CC(C)Oc1cc2[nH]ncc2cc1Nc1ncnc2[nH]cc(Br)c12` [Example 26, 5-Bromo-N-[6-(propan-2-yloxy)-1H-indazol-5-yl]-7H-pyrrolo[2,3-d]pyrimidin-4-amine] yielded an IC50 of 2 nM.
